Where two headings read alike, the source gives them in different places. Marks after values point to notes of the source that are not given here.
What was measured:
[1] = Image-based single particle analysis (SPA) solubility measurement of amorphous and crystalline samples; format: physicochemical; conditions: for DS (degree of supersaturation, amorphous vs crystalline solubility), SPA method: Milli-Q ultrapure water, type 1
Description: The constant flow continuously displaces drug molecules from the surface of the dissolving particle. […] (Figure 1). The solubilities of all five crystalline and amorphous samples were measured in triplicate in Milli-Q water. […] The obtained solubility values, therefore, were the average of three independent measurements, where at least ten particles per single measurement were analyzed. Additionally, amorphous IND was also measured in HCl buffer pH 2.0 in the presence of 0.1% (w/v) polyvinylpyrolidone (PVP). The additional measurement using PVP was performed in order to assess the need for a crystallization inhibitor in the SPA experiments. The solubilities of the amorphous and crystalline samples were measured in Milli-Q water and USP buffers as soon as the solvent came in contact with particles.

[2] = Theoretical estimation of DS by the Hoffman method from DSC and DVS data; format: physicochemical
Description: Samples of 5–10 mg were tightly packed into standard aluminum crucibles (40 μL) with pierced lids. The samples were equilibrated at 25 °C for 3 min and then linearly heated with a heating rate of 10 °C/min to 20 °C above their respective melting points. Measurements of both amorphous and crystalline samples were recorded in triplicate, and thermal events were analyzed using the STARe software (Mettler-Toledo, Greifensee, Switzerland). Temperatures and melting enthalpies were used to estimate the free energy difference between the amorphous and crystalline forms.
The water sorption isotherms of the five amorphous drug samples were determined using the method previously described by Murdande et al.[10] A VTI-SA+ Vapor Sorption Analyzer (TA Instruments, New Castle, DE, USA) was used to measure the moisture sorption profiles of the amorphous samples. Approximately 10 mg of amorphous sample was placed into a glass holder. To reduce the possibility of sample crystallization during the measurement, no drying step was used. The DVS measurements were performed at 25 °C from 0 to 95% relative humidity (in 10% steps up to 90%). The equilibrium criterion was 0.001% weight change in 5 min with a maximum step time of 150 min. The instrument is calibrated once a month.
According to Hoffman, the difference in Gibbs free energy (ΔG) between the crystalline and the amorphous form can be estimated using eq 4.[15]Hm, Tm, and T are the melting enthalpy of the crystalline form, the melting temperature of the crystalline form, and the experimental temperature measured in Kelvin, respectively. Using the ΔG estimation, the maximum DS due to amorphization was predicted according to Hancock and Parks[9] and corrected for the impact of water on the amorphous solute as proposed by Murdande et al. through eq 5.[10]R and exp(−I(a2)) are the gas constant and a correction factor obtained from DVS measurements, as shown by Murdande et al.[10]

[3] = cited from earlier work
[4] = cited from earlier work; remark: listed apart in the source
[5] = Dynamic water sorption (DVS) of amorphous samples; format: physicochemical; conditions: above RH 80%, 25 °C

Structure (SMILES)	DS (degree of supersaturation, amorphous vs crystalline solubility), SPA method [1]	DS, theoretical estimation (Hoffman method with correction for the effect of water on the amorphous solute) [2]	DS, literature, dissolution in water ([3]; deionized water)	DS, literature, theoretical estimation ([4]; approach by Almeida et al.)	DS, literature, theoretical estimation [4]	DS, literature, dissolution in water ([3]; distilled water)	DS range reported in the literature ([4]; temperature range of 34–75 °C)	DS, theoretical estimation based solely on ΔG, without the correction for the adsorbed water [2]	sample mass loss in DVS experiment (crystallization, water expelled) [5] [%]	effect of PVP in the dissolution medium on the solubility of the amorphous form, SPA method ([1]; USP HCl buffer pH 2.0 with vs without PVP 0.1% (w/v))
COC1=CC(=O)C[C@@H](C)[C@]12Oc1c(Cl)c(OC)cc(OC)c1C2=O [GRI, griseofulvin]	29.8	34.6	1.4 ^d^, ^i	30.9	29.1					
Cc1ccc(-c2cc(C(F)(F)F)nn2-c2ccc(S(N)(=O)=O)cc2)cc1 [CEL, Celecoxib]	18.9	21.7				3.1 ^c^, ^h	7–21			
OCCN(CCO)c1nc(N2CCCCC2)c2nc(N(CCO)CCO)nc(N3CCCCC3)c2n1 [DIP, Dipyridamole]	15.3	6.6			10 ^k			15.2	0.39	
C#C[C@]1(O)CC[C@H]2[C@@H]3CCC4=Cc5oncc5C[C@]4(C)[C@H]3CC[C@@]21C [DAN, Danazol]		23.9	3.0 ^d^, ^i		26.5 ^i					
COc1ccc2c(c1)c(CC(=O)O)c(C)n2C(=O)c1ccc(Cl)cc1 [IND, indomethacin]	20.4	18.7	4.9 ^d^, ^i		20.8 ^i					did not affect
